In assay [1] the test system is lipase. Kind of assay: Anti-lipase activity in tubo (1,2-diglyceride to glycerol, absorbance 570 nm). It counts as biochemical. The conditions noted are these: positive reference, concentration not given. How it is done:
The subject of the method is to study the capacity of a composition to provoke and regulate the activity of the lipase enzyme by an in tubo method, said enzyme having an inflammatory action. Lipase has the capacity to convert the colorless 1,2-diglyceride into glycerol, which is pink in color. The samples for the evaluation test are placed in tubo in the presence of lipase and of 1,2-diglyceride, and the absorbance of the samples is measured in a spectrophotometer at a wavelength of 570 nm at the end of their preparation, then after 60 minutes of incubation at 37° C. under the same spectral conditions. By virtue of a range of glycerol, the lipase activity of the samples can be calculated, as can the percentage inhibition, by the following formulas: Lipase activity=(amount of glycerol formed between 0 and 60 minutes)/(60 minutes×sample volume) Percentage inhibition=100×[(lipase activity of control group)−(lipase activity of test product)]/(lipase activity of control group) Statistical Elements: The values are expressed as means+/−standard deviation. The statistical analysis of the results was conducted using a two-sided Student test with a significance threshold set at 5%, by pairwise comparison of the series of values. […]

In assay [2] the test system is TLR-3. Kind of assay: IL-8 and hBD2 production by normal human keratinocytes, TLR-3 activated by poly(I:C) (ELISA). Particulars: cells stimulated with poly(I:C), 100 nM. It counts as cell-based. How it is done: The anti-inflammatory effect of compositions was evaluated on normal human keratinocytes under conditions imitating an imbalance in the cutaneous microbiota through the activation of 3 TLRs (Toll-Like Receptors). These receptors are activated by recognition of specific elements of the microbes, and their function is to alert the immune system in order to activate the body's defenses. In this model, the imbalance in the microbiota was modeled with various stimuli imitating a skin infection: • TLR-5 was activated by flagellin (the main protein of the flagellar filament, present in virtually all bacteria) • TLR-2 was activated by zymosan (glycoprotein complex extracted from yeast membranes) • TLR-3 was activated by poly(I:C) (a synthetic analog of the double-stranded RNA found in viruses)
The effect of the compositions tested was evaluated on the basis of their capacity to modulate the production of IL-8 and of hBD2 induced by these stimuli, using specific “ELISA” kits. The concentration of total proteins was also evaluated, in order to standardize the production of cytokin (IL-8) and of antimicrobial peptide (hBD2).
The values are expressed as means+/−sem [standard error of the mean=standard deviation/root (number of values)].
For each treatment, a calculation was made of: % protection=100×[mean (cells+treatment)−mean (stimulated cells)]/[mean (unstimulated cells)−mean (stimulated cells)] The statistical analysis of the results was conducted using a two-sided Student test with a significance threshold set at 5%, by pairwise comparison of the series of values. A difference between the efficacy of two products is considered to be: • significant if p<0.05; • “at the limit of significance” if 0.05≤p<0.1; • and not significant if p>0.1. B.2.2. Results Obtained In the three tables which follow: For stimulated cells: *** p<0.001 vs unstimulated cells. For treated and stimulated cells: *** p<0.001 vs stimulated cells. The results obtained following activation of TLR-5 by flagellin, the results are set out in table 10 below: […]

Experimental findings from US12403077B2, “Use of a new composition for preventing or slowing the appearance of signs of inflammation” (SOCIETE D'EXPLOITATION DE PRODUITS POUR LES INDUSTRIES …, priority 2018, dated 2025) are described below.

Marks after values point to notes of the source that are not given here. Where only a bound is given, the exact number is not on record here.

With `O=C1O[C@H]([C@@H](O)CO)C(O)=C1O` [Vitamin C], the Lipase activity in assay [1] (60 minutes at 37° C., mean +/- standard deviation) is reported as 2.11 +/− 0.01 mU/mL. In addition, the “% inhibition of the lipase” value in assay [1] (vs control) was 50*** %.

In assay [2], `CO/C1=C\C(C)=C\[C@@H](C)[C@@H](O)[C@@H](C)C/C(C)=C/C=C/[C@H](OC)[C@@H]([C@@H](C)[C@@H](O)[C@H](C)[C@@]2(O)C[C@@H](O)[C@H](C)[C@@H](C(C)C)O2)OC1=O` [bafilomycin] gave an IL-8 below 19 pg/mg proteins, an IL-8 % protection of 100%*** and a hBD2 % protection of 100%***. For the same compound, the hBD2 in assay [2] (mean +/- sem) is 17 +/− 2 pg/mg proteins.
